According to patent US9169199B2, “Cycloalkyl guanidine F1F0-ATPase inhibitors and therapeutic uses thereof” (Lycera Corporation, priority 2010, dated 2015):

Key:
Ramos cells = assay: Cytotoxicity in Ramos cells; type: cell-based; details: Homo sapiens, read-out: Ramos cell EC50
Procedure: (§1) Compounds in Example 4 above were tested for activity against F1F0-ATPase by measuring ATP synthesis. In addition, the compounds were assessed for cytotoxicity in Ramos cells. Inhibition of ATP synthesis by the F1F0-ATPase and cytotoxicity in Ramos cells were measured according to the procedures described in K. M. Johnson et al. Chemistry & Biology 2005, 12, 485-496.

F1F0-ATPase = target: T1, F1F0-ATPase (Bos taurus, UniProt P13621); assay: Inhibition of ATP synthesis by the F1F0-ATPase; type: biochemical
T1 construct: from tissue
Procedure: as §1

IC50 (F1F0-ATPase) [µM]	Structure (SMILES)	EC50 (Ramos cells) [µM]
< 10	CCOC(=O)NC1CCC(N/C(=N\C(=O)c2ccc(Cl)cc2)Nc2cc(F)cc(Cl)c2)CC1 (centres unmarked) [Compound 165]	< 10
> 10	O=C(/N=C(\NCc1ccccc1C(F)(F)F)N[C@H]1CC[C@H](O)CC1)c1ccc(F)c(F)c1 [Compound 16]	< 10
< 10	O=C(/N=C(/Nc1cccc(C(F)(F)F)c1)N[C@H]1CC[C@H](O)CC1)c1ccc(F)c(F)c1 [Compound 4]	< 10
< 10	O=C(/N=C(/Nc1cc(F)cc(Cl)c1)N[C@H]1CC[C@H](O)CC1)c1ccc(C(F)(F)F)cc1 [Compound 7]	< 10
< 10	O=C(/N=C(/Nc1cc(F)cc(Cl)c1)N[C@H]1CC[C@H](Nc2ncccn2)CC1)c1ccc(C(F)(F)F)cc1 [Compound 115]	< 10
< 10	CCOC(=O)N[C@@H]1CCC[C@@H](N/C(=N\C(=O)c2ccc(F)c(F)c2)Nc2cc(F)cc(Cl)c2)C1 [Compound 126]	< 10
< 10	COC(=O)NC1CCC(N/C(=N\C(=O)c2ccccc2)Nc2cc(F)cc(Cl)c2)CC1 (centres unmarked) [Compound 150]	> 10
< 10	O=C(/N=C(/Nc1cc(F)cc(Cl)c1)N[C@H]1CC[C@H](Nc2ncccn2)CC1)c1ccc(F)c(F)c1 [Compound 9]	< 10
> 10	O=C(/N=C(/NCc1ccc(Cl)cc1F)N[C@H]1CC[C@H](O)CC1)c1ccc(F)c(F)c1 [Compound 46]	< 10
< 10	COC(=O)NC1CCC(N/C(=N\C(=O)c2cccc(OC)c2)Nc2cc(F)cc(Cl)c2)CC1 (centres unmarked) [Compound 156]	< 10
< 10	CCOC(=O)N[C@H]1CC[C@H](N/C(=N\C(=O)c2ccc(F)c(F)c2)NCc2cccc(Cl)c2)CC1 [Compound 48]	< 10
< 10	O=C(/N=C(/NCc1ccc(F)cc1Cl)N[C@H]1CC[C@H](Nc2ncccn2)CC1)c1ccc(F)c(F)c1 [Compound 73]	< 10
< 10	CCOC(=O)N[C@H]1CC[C@H](N/C(=N/C(=O)c2ccc(F)c(F)c2)Nc2cccc(Cl)c2)CC1 [Compound 19]	< 10
> 10	CS(=O)(=O)N[C@H]1CC[C@H](N/C(=N/C(=O)c2ccc(F)c(F)c2)Nc2cccc(Cl)c2)CC1 [Compound 97]	< 10
< 10	O=C(/N=C(/NCc1ccc(F)c(Cl)c1)N[C@H]1CC[C@H](Nc2ncccn2)CC1)c1ccc(F)c(F)c1 [Compound 74]	< 10
> 10	O=C(/N=C(/NCc1cc(F)ccc1F)N[C@H]1CC[C@H](O)CC1)c1ccc(F)c(F)c1 [Compound 38]	> 10
> 10	O=C(/N=C(/NCc1cccc(F)c1)N[C@H]1CC[C@H](O)CC1)c1ccc(F)c(F)c1 [Compound 36]	> 10
< 10	CCOC(=O)N[C@H]1CC[C@H](N/C(=N\C(=O)c2ccc(F)c(F)c2)NCc2ccc(Cl)c(F)c2)CC1 [Compound 62]	< 10
< 10	O=C(/N=C(/Nc1cc(F)cc(Cl)c1)N[C@H]1CCCC[C@H]1O)c1ccc(F)c(F)c1 [Compound 128]	< 10
< 10	O=C(/N=C(/Nc1cc(F)cc(Cl)c1)NC1CCC(NC(=O)N2CCCC2)CC1)c1ccc(Cl)cc1 (centres unmarked) [Compound 163]	< 10
> 10	O=C(/N=C(/NCc1ccccc1F)N[C@H]1CC[C@H](O)CC1)c1ccc(F)c(F)c1 [Compound 35]	> 10
< 10	O=C(/N=C(/Nc1cc(F)cc(Cl)c1)N[C@H]1CC[C@H](NC(=O)c2ccccc2)CC1)c1ccc(F)c(F)c1 [Compound 140]	< 10
< 10	O=C(/N=C(/Nc1ccc(F)c(Cl)c1)N[C@H]1CC[C@H](Nc2ncccn2)CC1)c1ccc(F)c(F)c1 [Compound 83]	< 10
< 10	COC(=O)NC1CCC(N/C(=N\C(=O)c2ccc(OC)cc2)Nc2cc(F)cc(Cl)c2)CC1 (centres unmarked) [Compound 153]	< 10
< 10	O=C(/N=C(/Nc1cc(F)cc(Cl)c1)N[C@H]1CC[C@H](O)CC1)c1cccc(Cl)c1 [Compound 26]	–

More lines, now with the values behind:

Structure (SMILES)	IC50 (F1F0-ATPase) [µM]	EC50 (Ramos cells) [µM]
CCOC(=O)N[C@H]1CC[C@H](N/C(=N\C(=O)c2ccc(F)c(F)c2)NCc2ccc(F)c(F)c2)CC1 [Compound 56]	< 10	< 10
O=C(/N=C(/NCc1ccc(Cl)c(F)c1)N[C@H]1CC[C@H](Nc2ncccn2)CC1)c1ccc(F)c(F)c1 [Compound 75]	< 10	< 10
CCOC(=O)N[C@H]1CC[C@H](N/C(=N\C(=O)c2ccc(F)c(F)c2)Nc2cc(C(C)(C)C)on2)CC1 [Compound 80]	> 10	> 10
CCOC(=O)N[C@H]1CC[C@H](N/C(=N\C(=O)c2ccc(F)c(F)c2)NC(C)(C)C)CC1 [Compound 103]	> 10	> 10
CCOC(=O)N[C@H]1CC[C@H](N/C(=N\C(=O)c2ccc(F)c(F)c2)NC2CCCC2)CC1 [Compound 109]	> 10	> 10
CC(C)(C)N/C(=N/C(=O)c1ccc(C(F)(F)F)cc1)N[C@H]1CC[C@H](Nc2ncccn2)CC1 [Compound 112]	> 10	> 10
CCOC(=O)N[C@H]1CC[C@H](N/C(=N\C(=O)c2ccc(F)c(F)c2)NCc2ccccc2C(F)(F)F)CC1 [Compound 50]	< 10	< 10
CC1(N/C(=N/C(=O)c2ccc(Cl)cc2)N[C@H]2CC[C@H](Nc3ncccn3)CC2)CCCC1 [Compound 122]	< 10	< 10
O=C(/N=C(/Nc1ccccc1C1CC1)N[C@H]1CC[C@H](Nc2ncccn2)CC1)c1ccc(F)c(F)c1 [Compound 67]	< 10	> 10
CCOC(=O)N[C@H]1CC[C@H](N/C(=N\C(=O)c2ccc(F)c(F)c2)NCc2cccc(C(F)(F)F)c2)CC1 [Compound 51]	< 10	< 10
CCOC(=O)N[C@H]1CC[C@H](N/C(=N\C(=O)c2ccc(F)c(F)c2)NCc2ccc(C(F)(F)F)cc2)CC1 [Compound 52]	< 10	< 10
CC(C)(C)c1ccccc1N/C(=N\C(=O)c1ccc(C(F)(F)F)cc1)N[C@H]1CC[C@H](O)CC1 [Compound 1]	< 10	< 10
CC(C)(C)CN/C(=N/C(=O)c1ccc(F)c(F)c1)N[C@H]1CC[C@H](NC(=O)c2ccccc2)CC1 [Compound 142]	< 10	< 10
O=C(/N=C(/NCc1ccccc1C(F)(F)F)N[C@H]1CC[C@H](O)CC1)c1ccc(F)c(F)c1 [Compound 32]	–	> 10
O=C(/N=C(/NCc1ccccc1Cl)N[C@H]1CC[C@H](Nc2ncccn2)CC1)c1ccc(F)c(F)c1 [Compound 90]	< 10	< 10
CCOC(=O)N[C@H]1CC[C@H](N/C(=N\C(=O)c2ccc(F)c(F)c2)NC2(C)CCC2)CC1 [Compound 106]	> 10	> 10
O=C(/N=C(/Nc1cc(F)cc(Cl)c1)N[C@H]1CCCC[C@@H]1O)c1ccc(C(F)(F)F)cc1 [Compound 127]	–	< 10
O=C(/N=C(/Nc1cc(F)cc(Cl)c1)NC1CCC(O)CC1)c1cccc(Cl)c1 (centres unmarked) [Compound 26]	–	< 10
CCOC(=O)N[C@H]1CC[C@H](N/C(=N/C(=O)c2ccc(F)c(F)c2)NC2CCCC2)CC1 [Compound 70]	–	> 10
